Results taken from patent publication US10407388B2, “Thiourea derivatives as activators of RORα and pharmaceutical composition containing same” (SEOUL NATIONAL UNIVERSITY R & DB FOUNDATION, priority 2011, dated 2019).

Key:
SREBP-1 = assay: Expression of SREBP-1 protein in HepG2 cells, western blotting; type: cell-based, human; conditions: for expression of SREBP-1, which had been increased by T17: 0, 1, 10, 50, 100 μM with 1 μM T17, 24 hours, FIGS. 6b and 6c; for expression of proteins (LXRα, SREBP-1, FAS of FIGS. 6b and 6c): 50 μM to 100 μM with 1 μM T17, 24 hours; for expression of SREBP-1 protein: 100 μM, 24 hours, FIG. 6a
Protocol: (§1) HepG2 cells (1×10^6 cells/well) were seeded on a 60-dish and cultured overnight in a DMEM containing 10% FBS. The HepG2 cells were maintained at 37° C. in a humidification thermostat containing 5% CO2 and 95% air. After culturing, the HepG2 cells were treated with each of the JC1-38, JC1-40, and JC1-42 compounds at a concentration of 100 μM, and, as a positive control, the HepG2 cells were treated with 2 mM metformin, which is an AMPK activator, for 24 hours. After treatment, the expression of proteins was analyzed by western blotting analysis. That is, after treatment, the HepG2 cells were destroyed on ice in a lysis buffer containing 50 mM NaCl, 50 mM Tris pH 7.4, 5 mM EDTA, 1% NP-40, and a protease inhibitor for 30 minutes, and then centrifuged to obtain a total cell lysate. 20 μg to 30 μg of proteins collected from the total cell lysate was subjected to 7% to 9% sodium dodecyl sulfate-polyacrylamide gel electrophoresis (SDS-PAGE), and was transferred to a polyvinylidene difluoride membrane (Millipore, Bedford, Mass., USA). The resulting product was subjected to blocking with 5% or 10% (w/v) nonfat dry milk in PBS containing 0.1% Tween-20, and was reacted with antibodies specific to RORα (Affinity BioReagents), LXRα, SREBP-1, FAS (Santa Cruz Biotechnology), phospho-ACC (Cell signaling), and α-tubulin (Calbiochem). Immunoreactive proteins were detected with Amersham ECL western blotting detection reagents using a horseradish peroxidase (HRP)-conjugated secondary antibody (Zymed Lab). Protein concentrations were quantified by bicinchoninic acid (BCA) (Pierce) analysis, and the expression of α-tubulin was monitored as a control. The results thereof are illustrated in FIG. 6a.
(§2) In addition, HepG2 cells were cultured under the same conditions, and then the HepG2 cells were treated with particular concentrations (0 μM, 1 μM, 10 μM, 50 μM, and 100 μM) of JC1-40 (or JC1-42) and 1 μM T17 for 24 hours. After treatment, the expression of proteins was analyzed by western blotting analysis, and the expression of α-tubulin was monitored as a control. The results thereof are illustrated in FIGS. 6b and 6c.

HMGCS2 = assay: Fatty acid oxidation gene HMGCS2 in HepG2 cells, real-time RT-PCR; type: cell-based, human; conditions: 100 μM, 24 hours; FIG. 8
Protocol: (§3) HepG2 cells (1×10^6 cells/well) were seeded on a 60-dish and cultured overnight in a DMEM containing 10% FBS. The HepG2 cells were maintained at 37° C. in a humidification thermostat containing 5% CO2 and 95% air. After culturing, the HepG2 cells were treated with JC1-38, JC1-40, and JC1-42 at a concentration of 100 μM for 24 hours. After treatment, effects thereof on transcriptional activity were analyzed by real-time reverse transcriptase-polymerase chain reaction (real-time RT-PCR) analysis. The PCR was performed using the following primers respectively specific to MCAD, ACO1, ACO2, HMGCS2, CPT-1, and ACS, which are involved in fatty acid oxidation: […]

ACO2 = assay: Fatty acid oxidation gene ACO2 in HepG2 cells, real-time RT-PCR; type: cell-based, human; conditions: 100 μM, 24 hours; FIG. 8
Protocol: as §3

ACS = assay: Fatty acid oxidation gene ACS in HepG2 cells, real-time RT-PCR; type: cell-based, human; conditions: 100 μM, 24 hours; FIG. 8
Protocol: as §3

ACO1 = assay: Fatty acid oxidation gene ACO1 in HepG2 cells, real-time RT-PCR; type: cell-based, human; conditions: 100 μM, 24 hours; FIG. 8
Protocol: as §3

CD36 = assay: Fatty acid uptake gene CD36 in HepG2 cells, RT-PCR; type: cell-based, human; conditions: 100 μM, 24 hours; FIG. 9a
Protocol: as §3, with “60-dish,” for “60-dish”, “RT-PCR” for “real-time reverse transcriptase-polymerase chain reaction (real-time RT-PCR)”, “CD36 (see FIG. 9a) involved in fatty acid uptake” for “MCAD, ACO1, ACO2, HMGCS2, CPT-1,”, “MTTP and ApoB100 (see FIG. 9b),” for “ACS,”, “the secretion of very low density lipoproteins:” for “fatty acid oxidation:”

MTTP = assay: VLDL secretion gene MTTP in HepG2 cells, RT-PCR; type: cell-based, human; conditions: 100 μM, 24 hours; FIG. 9b
Protocol: as §3, with “60-dish,” for “60-dish”, “RT-PCR” for “real-time reverse transcriptase-polymerase chain reaction (real-time RT-PCR)”, “CD36 (see FIG. 9a) involved in fatty acid uptake” for “MCAD, ACO1, ACO2, HMGCS2, CPT-1,”, “MTTP and ApoB100 (see FIG. 9b),” for “ACS,”, “the secretion of very low density lipoproteins:” for “fatty acid oxidation:”

LXRα [1] = assay: Expression of LXRα protein in HepG2 cells, western blotting; type: cell-based, human; conditions: for expression of LXRα protein: 100 μM, 24 hours, FIG. 6a
Protocol: as §1, §2

LXRα [2] = assay: Transcriptional activity of LXRα, LXRE-Luc reporter in HepG2 cells treated with T17; type: cell-based, human; conditions: 1 μM, 10 μM, 20 μM, 50 μM, and 100 μM with 1 μM T17, 24 hours; FIG. 5a
Protocol: A human hepatoma cell line and HepG2 (ATCC HB 8065) were purchased from ATCC. HepG2 cells (1.2×10^5 cells/well) were seeded on a 24-well culture plate and cultured overnight in a DMEM containing 10% FBS. The HepG2 cells were maintained at 37° C. in a humidification thermostat containing 5% CO2 and 95% air. After culturing, the HepG2 cells were transformed with LXRE-Luc reporter (0.1 μg) using Welfect-EXTM Plus (WelGENE Inc., Korea). 24 hours after transformation, the HepG2 cells were treated with particular concentrations (1 μM, 10 μM, 20 μM, 50 μM, and 100 μM) of JC1-38, JC1-40, and JC1-42 and 1 μM T17 (T0901317), which is a ligand of LXRα, for 24 hours. Subsequently, cell lysates were collected, and luciferase activity was analyzed and determined using an analytical luminescence luminometer. The luciferase activity was standardized by β-gal activity to determine transcriptional activity, and data was attained as the mean and SD for two or three independent experimental results, and the results thereof are illustrated in FIG. 5a.

[3] = Chemical stability of JC1 compounds; type: physicochemical

SMILES	expression of SREBP-1, which had been increased by T17 (SREBP-1)	expression of proteins (LXRα, SREBP-1, FAS of FIGS. 6b and 6c) (SREBP-1)	expression of SREBP-1 protein (SREBP-1)	transcriptional activity of HMGCS2 (HMGCS2)	transcriptional activity of ACO2 (ACO2)	transcriptional activity of ACS (ACS)	transcriptional activity of ACO1 (ACO1)	transcriptional activity of CD36 (CD36)	transcriptional activity of MTTP (MTTP)	expression of LXRα protein (LXRα [1])	transcriptional activity of LXRα, which had been increased by T17 (LXRα [2])	chemical stability [3]	expression of LXRα, which had been increased by T17 (LXRα [1]; 0, 1, 10, 50, 100 μM with 1 μM T17, 24 hours, FIG. 6c)
CNC(=S)NCc1ccc(OCc2ccccc2)cc1 [Compound 40, 1-(4-benzyloxy-benzyl)-3-methyl-thiourea]	decreased in a manner dependent on the concentration	strongly inhibited	decreased	increased	increased	increased	increased	decreased	increased	decreased	decreased in a manner dependent on the concentration	highly chemically stable	
CNC(=S)NCc1ccccc1-c1ccncc1 [Compound 38, 1-methyl-3-(4-pyridinyl-2-benzyl)-thiourea]			decreased	increased	increased	increased	increased	decreased	increased	decreased	decreased in a manner dependent on the concentration	highly chemically stable	
CNC(=S)NCc1ccc(Oc2ccccc2)cc1 [Compound 42, 1-(4-phenoxy-benzyl)-3-methyl-thiourea]	decreased in a manner dependent on the concentration	strongly inhibited	decreased	increased	increased	increased	increased	decreased	increased	decreased	decreased in a manner dependent on the concentration	highly chemically stable	decreased in a manner dependent on the concentration
